# From US20060014642A1, “Herbicidal compositions” (Bayer CropScience GmbH, priority 2004, published 2006)
# Key:
# Type in all cases: in vivo
# Festuca rubra = assay: Outdoor trial, post-emergence herbicidal action against Festuca rubra
# Method: (§1) The herbicidal efficacy of the active compounds or active compound mixtures was scored visually by comparing the treated pots (soil) with untreated controls. The damage and development of all above-ground plant parts was recorded. Scoring was done on a percentage scale (100% action=all plants dead or not emerged; 50% action=50% of the plants and green plant parts dead or not emerged; 0% action=no discernible action=like control plot). The score figures of in any case 4 repetitions (pots) were averaged.
# (§2) Seeds or rhizome pieces of monocotyledonous and dicotyledonous weeds are placed in sandy loam in pots, covered with soil and grown in the greenhouse under good growth conditions (temperature, atmospheric humidity, water supply). Three weeks after sowing, the test plants are treated in the three-leaf stage with the compositions according to the invention. The compositions according to the invention, formulated as wettable powders or emulsion concentrates, are sprayed onto the green plant parts in various dosages using an application rate of 300 to 800 l of water/ha (converted). After the test plants have remained in the greenhouse under optimum growth conditions for about 3 to 4 weeks, the effect of the preparations is scored visually in comparison with untreated controls (scoring as in Example 1). […]
# Poa trivialis = assay: Outdoor trial, post-emergence herbicidal action against Poa trivialis
# Method: as §1, §2
# Lolium multiflorum = assay: Outdoor trial, post-emergence herbicidal action against Lolium multiflorum; conditions: application at the 2-5-leaf stage (post-emergence), evaluation 55 days after treatment
# Method: as §1
# Seeds or rhizome pieces of monocotyledonous and dicotyledonous weeds are placed in sandy loam in pots, covered with soil and grown in the greenhouse under good growth conditions (temperature, atmospheric humidity, water supply). Three weeks after sowing, the test plants are treated in the three-leaf stage with the compositions according to the invention. The compositions according to the invention, formulated as wettable powders or emulsion concentrates, are sprayed onto the green plant parts in various dosages using an application rate of 300 to 800 l of water/ha (converted). After the test plants have remained in the greenhouse under optimum growth conditions for about 3 to 4 weeks, the effect of the preparations is scored visually in comparison with untreated controls (scoring as in Example 1). The compositions according to the invention also have good herbicidal post-emergence action against a broad spectrum of economically important weed grasses and broad-leaf weeds.
# Corresponding to the greenhouse experiments of sections 1 and 2, the tests were carried out in the open on plots. Scoring was carried out analogously to the tests in sections 1 and 2.
# Certain combinations were tested for their herbicidal activity in accordance to the general example in section 3 in combination with section 2 (post-emergence method).
# [1] = 600 g of AS/ha, application at stage 21, evaluation 35 days after treatment
# [2] = 200 g of AS/ha, application at stage 21 of the harmful plants, evaluation 35 days after treatment
compound,measurement,setting,value
"CP(=O)(O)CCC(N)C(=O)O (racemic) [(B2.1.1.1), 4-[hydroxy(methyl)phosphinoyl]-DL-homoalanine, reference compound]",Herbicidal action [%] against Festuca rubra,Festuca rubra; [1],87%
same,Herbicidal action [%] against Poa trivialis,Poa trivialis; [1],88%
"Cc1ccc2c(c1)[C@H](Nc1nc(N)nc([C@@H](C)F)n1)CC2 [(A11), 2-amino-4-[(1R)-6-methylindan-1-ylamino]-6-[(1R)-1-fluoroethyl]-1,3,5-triazine]",Herbicidal action [%] against Festuca rubra,Festuca rubra; [2],0%
same,Herbicidal action [%] against Lolium multiflorum,Lolium multiflorum; 200 g of AS/ha,20%
same,Herbicidal action [%] against Lolium multiflorum,Lolium multiflorum; 300 g of AS/ha,50%
same,Herbicidal action [%] against Poa trivialis,Poa trivialis; [2],0%
"O=C(O)CNCP(=O)(O)O [(B2.1.2.1), N-(phosphonomethyl)glycine, reference compound]",Herbicidal action [%] against Lolium multiflorum,Lolium multiflorum; 1080 g of AS/ha,18%
